Reference: the NIST ThermoML archive (doi:10.1021/je9004068)
± gives the expanded uncertainty stated by the source.

Experiments:
[1] = xn = mol fraction of the nth substance listed; settings: 303.15 K, Maximal bubble pressure
[2] = for mass density: 298.15 K, 101.33 kPa; for mass density / vapor or sublimation pressure: Liquid; for surface tension liquid-gas: 303.15 K, Maximal bubble pressure
[3] = refractive index (Na D-line) (dimensionless); settings: 298.15 K; 101.33 kPa; Liquid; Standard Abbe refractometry

SMILES: COC(C)(C)C [2-methoxy-2-methylpropane] + CCO
- surface tension liquid-gas ([1]; x2 = 0.102): 18.39 ± 0.25 mN/m
- surface tension liquid-gas ([1]; x2 = 0.212): 18.38 ± 0.25 mN/m
- surface tension liquid-gas ([1]; x2 = 0.31): 18.54 ± 0.25 mN/m
- surface tension liquid-gas ([1]; x2 = 0.408): 18.84 ± 0.25 mN/m
- surface tension liquid-gas ([1]; x2 = 0.527): 19 ± 0.25 mN/m
- surface tension liquid-gas ([1]; x2 = 0.623): 19.21 ± 0.25 mN/m
- surface tension liquid-gas ([1]; x2 = 0.721): 19.56 ± 0.25 mN/m
- surface tension liquid-gas ([1]; x2 = 0.826): 20.03 ± 0.25 mN/m

SMILES: COC(C)(C)C [2-methoxy-2-methylpropane]
- mass density [2]: 735.45 ± 0.36 kg/m3
- surface tension liquid-gas [2]: 18.7 ± 0.25 mN/m
- vapor or sublimation pressure ([2]; 308.3 K): 50 ± 0.12 kPa
- vapor or sublimation pressure ([2]; 319.39 K): 75 ± 0.13 kPa
- vapor or sublimation pressure ([2]; 325.98 K): 94 ± 0.15 kPa
- refractive index [3]: 1.36766 ± 0.00031

SMILES: CCO [ethanol]
- mass density [2]: 785.05 ± 0.31 kg/m3
- surface tension liquid-gas [2]: 21.7 ± 0.26 mN/m
- vapor or sublimation pressure ([2]; 310.89 K): 16.01 ± 0.08 kPa
- vapor or sublimation pressure ([2]; 318.88 K): 24.01 ± 0.08 kPa
- vapor or sublimation pressure ([2]; 323.51 K): 30.01 ± 0.09 kPa
- vapor or sublimation pressure ([2]; 328.54 K): 38.01 ± 0.1 kPa
- vapor or sublimation pressure ([2]; 332.24 K): 45.01 ± 0.11 kPa
- vapor or sublimation pressure ([2]; 334.57 K): 50 ± 0.11 kPa
- vapor or sublimation pressure ([2]; 335.05 K): 51.01 ± 0.11 kPa
- vapor or sublimation pressure ([2]; 338.38 K): 59.01 ± 0.13 kPa
- vapor or sublimation pressure ([2]; 341.01 K): 66.01 ± 0.14 kPa
- vapor or sublimation pressure ([2]; 343.4 K): 73.01 ± 0.14 kPa
- vapor or sublimation pressure ([2]; 344.02 K): 75 ± 0.15 kPa
- vapor or sublimation pressure ([2]; 345.61 K): 80.01 ± 0.15 kPa
- vapor or sublimation pressure ([2]; 347.66 K): 87.01 ± 0.16 kPa
- vapor or sublimation pressure ([2]; 349.56 K): 94 ± 0.17 kPa
- vapor or sublimation pressure ([2]; 349.58 K): 94.01 ± 0.17 kPa
- vapor or sublimation pressure ([2]; 351.65 K): 102.07 ± 0.18 kPa
- refractive index [3]: 1.36068 ± 0.00031
